This is an account of results in patent publication US20210227868A1, “Formula with specific beta-lactoglobulin peptides” (N.V. Nutricia, priority 2018, published 2021).

Common to all, as to assay: T-cell proliferation assay (stimulation index)
What all share (type): cell-based, human

Assay [1] concerns cow's milk-specific T-cell lines (TCLs). The note with it: TCLs of three cow's milk allergic donors; SI>=2 positive. On the procedure: (§1) Synthetic peptides were obtained from JPT technologies. Only peptides containing at least 9 AAs were taken into account, as this is the minimal size for binding to MHC class II molecules and subsequent T-cell recognition (Holland et al, Front Immunol 2013 Jul 1; 4:172.) Synthetic peptides (JPT technologies) identical to the peptides identified in all batches of the HP of example 1 were dissolved in dimethylsulfoxide (Sigma Aldrich) at a concentration of 5.3 mM. The peptides were tested on cow's milk-specific T-cell lines (TCLs) from three different donors. The peptides were tested on cow's milk protein-specific T-cell lines (TCLs) from three infant donors, diagnosed with cow's milk protein allergy. […] Proliferation was determined as described previously (Ruiter et al, Clin Exp Allergy 2006, 36(3):303-310). Stimulation indexes (Sls, ratio between proliferation of allergen/peptide-stimulated and non-stimulated T cells) were calculated and a SI≥2 was considered positive.
(§2) To confirm that the peptides identified in HP were recognized by T cells, synthetic peptides identical to these identified peptides were tested on cow's milk-specific human TCLs. As there was a considered overlap between the identified peptides, five peptides were tested (Table 7) that were identified in all batches and differed with more than 9A from each other. All tested peptides were able to induce proliferation (FIG. 2). […] This was also seen with the in silico prediction data (data not shown). […] As peptide LIV . . . […] SLL (AA #1-32) did, the region containing AA #28-32 (DISLL) was essential for the response of TCL A. Unexpectedly, TCL C recognized peptide LIV . . . AAS (AA #1-27), while the longer peptide containing the same sequence with 5 additional AAs, LIV . . .

In assay [2] the test system is TCL A. As to conditions: SI>=2 positive. On the procedure: as §1, §2
Assay [3] deals with TCL C. The note with it: SI>=2 positive. On the procedure: as §1, §2

Take “TMKGLDIQKVAGTWYSLAMAASDISLLDAQ (beta-lactoglobulin peptide fragment) [SEQ ID NO: 4]”: the “T-cell proliferation / reactivity” value in assay [1] is “reactivity of every cell line was covered”.
Take “LIVTQTMKGLDIQKVAGTWYSLAMAAS (beta-lactoglobulin peptide fragment) [SEQ ID NO: 9]”: the T-cell proliferation result in assay [2] was “not able to induce proliferation”; in assay [3] it was “recognized”.
For “LIVTQTMKGLDIQKVAGTWYSLAMAASDISLL (beta-lactoglobulin peptide fragment) [SEQ ID NO: 11]”, in that order: “did” and “not able to induce a proliferative response”.
